Structures are written as SMILES.

This passage reports Activity and Ratio results from ChEMBL document CHEMBL3046926, “Molecular properties prediction, synthesis, and diuretic activity of phenoxy acetic acid bearing pyrazolines” (2013).

Experiment [1] concerns Rattus norvegicus. Briefly: Induction of diuresis in Rattus norvegicus albino (rat) assessed as normal saline intake at 20 mg/kg, po measured at 5-18 hr after drug administration by standard Lipschitz method (reference value: 2.50 +/-0.036 ml). Type of experiment: functional.
For experiment [2], the system named is Rattus norvegicus. Briefly: Induction of diuresis in Rattus norvegicus albino (rat) assessed as total urinary output at 20 mg/kg, po measured at 0-5 hr after drug administration by standard Lipschitz method (reference value: 2.46 +/-0.125 ml). Type of experiment: functional, Urine.
Experiment [3] relates to Rattus norvegicus. Briefly: Induction of diuresis in Rattus norvegicus albino (rat) assessed as urinary Cl- excretion at 20 mg/kg, po measured at 0-5 hr after drug administration by standard Lipschitz method (reference value: 0.46 +/-0.005 mEq/L). Type of experiment: functional, Urine.
For experiment [4], the system named is Rattus norvegicus. The experiment can be described thus: Induction of diuresis in Rattus norvegicus albino (rat) assessed as urinary excretion at 20 mg/kg, po measured at 5-18 hr after drug administration by standard Lipschitz method (reference value: 50.4%). The experiment is classed as functional, Urine.
Experiment [5] has as its system Rattus norvegicus. Briefly: Induction of diuresis in Rattus norvegicus albino (rat) assessed as normal saline intake at 20 mg/kg, po measured at 0-5 hr after drug administration by standard Lipschitz method (reference value: 2.50 +/-0.036 ml). The experiment is classed as functional.
The subject of experiment [6] is Rattus norvegicus. The experiment can be described thus: Induction of diuresis in Rattus norvegicus albino (rat) assessed as urinary Na+ excretion at 20 mg/kg, po measured at 5-18 hr after drug administration by standard Lipschitz method (reference value: 0.65+/-0.006 mEq/L). The experiment is classed as functional, Urine.
Experiment [7] concerns Rattus norvegicus. Briefly: Induction of diuresis action in Rattus norvegicus albino (rat) assessed as urinary excretion at 20 mg/kg, po measured at 5-18 hr after drug administration by standard Lipschitz method against untreated control (reference value: 1 no unit). The experiment is classed as functional, Urine.
In experiment [8] the test system is Rattus norvegicus. Briefly: Induction of diuresis in Rattus norvegicus albino (rat) assessed as total urinary output at 20 mg/kg, po measured at 5-18 hr after drug administration by standard Lipschitz method (reference value: 1.26 +/-0.049 ml). The experiment is classed as functional, Urine.
For experiment [9], the system named is Rattus norvegicus. The experiment can be described thus: Induction of diuresis activity in Rattus norvegicus albino (rat) assessed as urinary excretion at 20 mg/kg, po measured at 5-18 hr after drug administration by standard Lipschitz method against frusemide-treated control (reference value: 0.2 no unit). The experiment is classed as functional, Urine.
Experiment [10] relates to Rattus norvegicus. The experiment can be described thus: Induction of diuresis in Rattus norvegicus albino (rat) assessed as urinary K+ excretion at 20 mg/kg, po measured at 5-18 hr after drug administration by standard Lipschitz method (reference value: 0.22 +/-0.004 mEq/L). The experiment is classed as functional, Urine.
Experiment [11] has as its system Rattus norvegicus. Briefly: Induction of diuresis in Rattus norvegicus albino (rat) assessed as urinary excretion at 20 mg/kg, po measured at 0-5 hr after drug administration by standard Lipschitz method (reference value: 98.40%). Type of experiment: functional, Urine.
In experiment [12] the test system is Rattus norvegicus. Briefly: Induction of diuresis activity in Rattus norvegicus albino (rat) assessed as urinary excretion at 20 mg/kg, po measured at 0-5 hr after drug administration by standard Lipschitz method against frusemide-treated control (reference value: 0.5 no unit). The experiment is classed as functional, Urine.
Experiment [13] has as its system Rattus norvegicus. The experiment can be described thus: Induction of diuresis in Rattus norvegicus albino (rat) assessed as urinary Na+ excretion at 20 mg/kg, po measured at 0-5 hr after drug administration by standard Lipschitz method (reference value: 0.90 +/-0.003 mEq/L). Type of experiment: functional, Urine.
The subject of experiment [14] is Rattus norvegicus. Briefly: Induction of diuresis in Rattus norvegicus albino (rat) assessed as urinary K+ excretion at 20 mg/kg, po measured at 0-5 hr after drug administration by standard Lipschitz method (reference value: 0.46 +/-0.006 mEq/L). The experiment is classed as functional, Urine.
Experiment [15] concerns Rattus norvegicus. Briefly: Induction of diuresis action in Rattus norvegicus albino (rat) assessed as urinary excretion at 20 mg/kg, po measured at 0-5 hr after drug administration by standard Lipschitz method against untreated control (reference value: 1 no unit). Type of experiment: functional, Urine.
Experiment [16] has as its system Rattus norvegicus. Briefly: Induction of diuresis in Rattus norvegicus albino (rat) assessed as urinary Cl- excretion at 20 mg/kg, po measured at 5-18 hr after drug administration by standard Lipschitz method (reference value: 0.38 +/-0.011 mEq/L). The experiment is classed as functional, Urine.

For the molecule `COc1cc(C2CC(c3ccc(Cl)cc3)=NN2C(=O)COc2ccccc2)ccc1OCC(=O)O` (centres undefined), the Activity in experiment [1] stood at 2.94 mL; in experiment [2], 7.28 mL; in experiment [3], 1.66 mEq/L; in [4], 345.91%; in [5], 2.94 mL; in experiment [6] it was 3.82 mEq/L. Further, the Activity turned out to be 10.17 mL in [8]; 1.96 mEq/L in [10]; 247.61% in experiment [11]; 3.26 mEq/L in experiment [13]; 1.74 mEq/L in experiment [14]; 1.77 mEq/L in experiment [16]. The Ratio in [7] is 6.92; in experiment [9], 1.39; in experiment [12], 1.26; in [15], 2.5.
Take `COc1ccc(C2=NN(C(=O)COc3ccccc3)C(c3ccc(OCC(=O)O)c(OC)c3)C2)cc1` (centres undefined): the Activity amounted to 2.84 mL in experiment [1]; 5.13 mL in [2]; 0.96 mEq/L in experiment [3]; 190.49% in experiment [4]; 2.84 mL in [5]; 2.62 mEq/L in [6]. The Activity in experiment [8] came to 5.41 mL; in [10], 1.35 mEq/L; in experiment [11], 180.63%; in experiment [13], 1.92 mEq/L; in experiment [14], 0.54 mEq/L; in experiment [16], 1.38 mEq/L. The Ratio in experiment [7] worked out at 3.8; in experiment [9], 0.76; in [12] it was 0.91; in [15], 1.8.
With `NS(=O)(=O)c1cc(C(=O)O)c(NCc2ccco2)cc1Cl` [FUROSEMIDE], the Activity came out at 2.75 mL in [1]; 5.35 mL in [2]; 1.24 mEq/L in [3]; 247.63% in [4]; 2.75 mL in experiment [5]; 3.11 mEq/L in experiment [6]. The Activity in experiment [8] turned out to be 6.81 mL; in experiment [10] it was 3.11 mEq/L; in [11] it was 194.54%; in experiment [13] it was 2.44 mEq/L; in experiment [14], 1.27 mEq/L; in [16], 1.83 mEq/L. Further, the Ratio in experiment [7] came out at 4.94; in [9], 1; in experiment [12] it was 1; in [15], 1.97.
Regarding `COc1cc(C2CC(c3ccccc3)=NN2C(=O)c2ccccc2O)ccc1OCC(=O)O` (centres undefined), the Activity in experiment [1] is 2.34 mL; in experiment [2], 1.16 mL; in experiment [3] it was 0.16 mEq/L; in experiment [4], 8.54%; in experiment [5], 2.34 mL; in experiment [6], 0.16 mEq/L. Moreover, the Activity in [8] is 0.2 mL; in [10], 0.12 mEq/L; in experiment [11], 49.57%; in experiment [13], 0.35 mEq/L; in experiment [14], 0.16 mEq/L; in experiment [16], 0.06 mEq/L. The Ratio in experiment [7] is 0.16; in experiment [9], 0.03; in [12], 0.25; in experiment [15] it was 0.5.
Consider `COc1cc(C2CC(c3ccc(O)cc3)=NN2C(=O)COc2ccc(C)cc2)ccc1OCC(=O)O` (centres undefined), for which the Activity is 2.88 mL in experiment [1]; 1.81 mL in [2]; 0.24 mEq/L in [3]; 11.45% in [4]; 2.88 mL in experiment [5]; 0.12 mEq/L in [6]. For the same molecule, the Activity in experiment [8] was found to be 0.33 mL; in experiment [10], 0.19 mEq/L; in experiment [11] it was 62.84%; in [13], 0.45 mEq/L; in experiment [14], 0.25 mEq/L; in experiment [16] it was 0.07 mEq/L. For the same molecule, the Ratio in [7] was 0.22; in experiment [9], 0.04; in experiment [12], 0.3; in [15] it was 0.6.
With `COc1cc(C2CC(c3ccc(O)cc3O)=NN2C(=O)COc2ccccc2)ccc1OCC(=O)O` (centres undefined), the Activity turned out to be 2.74 mL in experiment [1]; 4.11 mL in experiment [2]; 0.66 mEq/L in [3]; 279.19% in experiment [4]; 2.74 mL in experiment [5]; 3.66 mEq/L in experiment [6]. For the same molecule, the Activity in experiment [8] was 7.65 mL; in experiment [10], 2.12 mEq/L; in experiment [11], 150%; in experiment [13], 1.92 mEq/L; in experiment [14] it was 0.55 mEq/L; in experiment [16] it was 1.69 mEq/L. Also, the Ratio in [7] is reported as 5.58; in [9], 1.12; in [12] it was 0.76; in experiment [15], 1.5.
As for `COc1cc(C2CC(c3ccc(Cl)cc3)=NN2C(=O)COc2ccc(C)cc2)ccc1OCC(=O)O` (centres undefined), the Activity was 2.86 mL in experiment [1]; 5.65 mL in experiment [2]; 1.36 mEq/L in experiment [3]; 284.96% in experiment [4]; 2.86 mL in experiment [5]; 3.13 mEq/L in experiment [6]. Further, the Activity turned out to be 8.15 mL in [8]; 1.87 mEq/L in experiment [10]; 197.55% in experiment [11]; 2.61 mEq/L in [13]; 1.32 mEq/L in [14]; 1.68 mEq/L in experiment [16]. Moreover, the Ratio in experiment [7] was determined as 5.68; in experiment [9], 1.14; in [12], 1.01; in [15], 2.
On to `COc1ccc(C2=NN(C(=O)c3ccc(Cl)cc3)C(c3ccc(OCC(=O)O)c(OC)c3)C2)cc1` (centres undefined), for which the Activity was 2.85 mL in [1]; 1.21 mL in experiment [2]; 0.36 mEq/L in experiment [3]; 8.07% in experiment [4]; 2.85 mL in experiment [5]; 0.11 mEq/L in experiment [6]. In addition, the Activity in experiment [8] amounted to 0.23 mL; in [10], 0.068 mEq/L; in experiment [11], 42.45%; in [13] it was 0.76 mEq/L; in [14] it was 0.36 mEq/L; in experiment [16], 0.06 mEq/L. The Ratio in experiment [7] stood at 0.16; in experiment [9], 0.03; in experiment [12], 0.2; in [15], 0.4.
For the molecule `COc1cc(C2CC(c3ccc(Cl)cc3)=NN2C(=O)Cc2ccccc2)ccc1OCC(=O)O` (centres undefined), the Activity in experiment [1] stood at 2.84 mL; in experiment [2], 4.45 mL; in experiment [3] it was 0.67 mEq/L; in experiment [4] it was 219.36%; in experiment [5], 2.84 mL; in [6], 2.86 mEq/L. In addition, the Activity was 6.23 mL in [8]; 1.65 mEq/L in experiment [10]; 156.69% in experiment [11]; 1.26 mEq/L in experiment [13]; 0.74 mEq/L in experiment [14]; 1.96 mEq/L in experiment [16]. Also, the Ratio in experiment [7] was determined as 4.38; in experiment [9], 0.88; in experiment [12] it was 0.76; in experiment [15] it was 1.5.
